Source: US20240208940A1, “SMALL-MOLECULE INHIBITORS FOR BETA-CATENIN/BCELL LYMPHOMA 9 PROTEIN-PROTEIN INTERACTION” (H. LEE MOFFITT CANCER CENTER AND RESEARCH INSTITUTE, INC., priority 2021, published 2024)
Where a name gives a salt, the structure may show the parent alone.

Target: β-catenin/BCL9 PPI (Homo sapiens (Human), UniProt P35222)
Assay: AlphaScreen competitive inhibition assay of β-catenin/BCL9 PPI
Format: binding
Details: mean ± standard deviation (n = 3); for Ki: derived from IC50, read-out: Ki ± SD
Procedure: AlphaScreen Assays of β-Catenin and BCL9 Interaction. Experiments were performed in white opaque 384-well plates from PerkinElmer (Waltham, MA), and the samples were read on a Biotek Synergy 2 plate reader (Winooski, VT) with excitation at 680 nm and emission at 570 nm. The standard AlphaScreen protocol was used with a sensitivity setting of 200. All dilutions were made in 1× assay buffer containing 25 mM Hepes (pH 7.4), 100 mM NaCl, 0.01% Triton X-100 and 0.1% BSA to minimize nonspecific interactions. For the competitive inhibition assays of β-catenin/BCL9 PPI, the negative control (equivalent to 0% inhibition) refers to 5.0 nM biotinylated BCL9, 50 nM His6-tagged β-catenin, and 10 μg/mL donor and acceptor beads in a final volume of 25 μL assay buffer, but no tested inhibitor present. The positive control (equivalent to 100% inhibition) refers to 5.0 nM biotinylated BCL9 and 10 μg/mL donor and acceptor beads in a final volume of 25 μL assay buffer.
For the β-catenin/BCL9 assay, 5 nM biotinylated BCL9 and 50 nM His6-tagged β-catenin were incubated in assay buffer for 30 min. Different concentrations of the tested inhibitor were added and incubated in 20 μL assay buffer for another 1 h. All of the assay plates were covered and gently mixed on an orbital shaker. The donor and acceptor beads were then added to the plates to a final concentration of 10 μg/mL in 25 μL assay buffer. The mixture was incubated for 1 h before detection. The IC50 value was determined by nonlinear least-square analysis of GraphPad Prism 8.0. The Ki values were derived from the IC50 values using a method reported by Wang and coworkers.^65 The equation used is Ki=[I]50/([L]50/Kd+[P]0/Kd+1) (Where [I]50 denotes the concentration of the free inhibitor at 50% inhibition, [L]50 is the concentration of the free labeled ligand at 50% inhibition, [P]0 is the concentration of the free protein at 0% inhibition, and Kd is the dissociation constant of the protein-ligand complex). All of the experiments were performed in triplicate and carried out in the presence of 1% DMSO for small-molecule inhibitors. Each compound was assayed at least by three independent experiments. The results were expressed as mean±standard deviation.

Sequence of β-catenin/BCL9 PPI (P35222 whole entry): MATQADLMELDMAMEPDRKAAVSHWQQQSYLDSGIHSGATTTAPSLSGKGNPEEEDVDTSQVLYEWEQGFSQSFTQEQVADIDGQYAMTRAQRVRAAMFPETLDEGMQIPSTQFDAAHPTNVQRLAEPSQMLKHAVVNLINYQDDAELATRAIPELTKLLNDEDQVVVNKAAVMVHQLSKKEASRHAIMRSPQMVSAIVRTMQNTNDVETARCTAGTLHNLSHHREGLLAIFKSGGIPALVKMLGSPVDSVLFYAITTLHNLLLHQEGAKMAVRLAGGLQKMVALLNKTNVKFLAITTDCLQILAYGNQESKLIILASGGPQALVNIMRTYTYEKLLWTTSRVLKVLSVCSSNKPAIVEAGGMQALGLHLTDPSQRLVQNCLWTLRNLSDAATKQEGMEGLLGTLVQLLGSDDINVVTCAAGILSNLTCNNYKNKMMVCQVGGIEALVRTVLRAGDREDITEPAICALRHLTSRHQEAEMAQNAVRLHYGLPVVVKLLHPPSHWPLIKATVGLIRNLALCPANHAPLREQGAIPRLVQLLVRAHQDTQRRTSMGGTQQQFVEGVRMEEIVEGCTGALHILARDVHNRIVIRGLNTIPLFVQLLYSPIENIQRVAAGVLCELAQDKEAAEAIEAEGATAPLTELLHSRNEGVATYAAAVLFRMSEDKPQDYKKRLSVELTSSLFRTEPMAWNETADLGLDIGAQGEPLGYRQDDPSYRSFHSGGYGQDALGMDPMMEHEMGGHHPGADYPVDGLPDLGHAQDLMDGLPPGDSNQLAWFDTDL

Row | SMILES | Ki [µM] | IC50 [µM]
1 | O=C(c1ccc(O[C@H]2CCNC2)c(-c2ccc(C(F)(F)F)cc2)c1)N1CCC(Oc2cc(F)cc(N3CCNCC3)c2)CC1 [Compound 9, (S)-(4-(3-fluoro-5-(piperazin-1-yl)phenoxy)piperidin-1-yl)(6-(pyrrolidin-3-yloxy)-4′-(trifluoromethyl)-[1,1′-biphenyl]-3-yl)methanone dihydrochloride] | ≤ 20 | ≤ 20
2 | O=C(c1ccc(O[C@H]2CCNC2)c(C2CCCCC2)c1)N1CCC(Oc2cc(F)cc(N3C[C@H]4CNC[C@H]4C3)c2)CC1 [Compound 4, (S)-(3-cyclohexyl-4-(((S)-pyrrolidin-3-yl)oxy)phenyl)(4-(3-fluoro-5-((3aR,6aS)-hexahydropyrrolo[3,4-c]pyrrol-2(1H)-yl)phenoxy)piperidin-1-yl)methanone ditrifluoroacetic acid] | > 84 | > 100
3 | O=C(c1ccc(O[C@H]2CCNC2)c(-c2ccc3cn[nH]c3c2)c1)N1CCC(Oc2cc(F)cc(N3CCNCC3)c2)CC1 [Compound 15, (S)-(3-(1H-indazol-6-yl)-4-(pyrrolidin-3-yloxy)phenyl)(4-(3-fluoro-5-(piperazin-1-yl)phenoxy)piperidin-1-yl)methanone dihydrochloride] | ≤ 20 | ≤ 20
4 | O=C(c1ccc(O[C@H]2CCNC2)c(C2CCCCC2)c1)N1CCC(Oc2cc(F)cc(N3CCC4(CCNC4)C3)c2)CC1 (stereo partly drawn) [Compound 5, (3-cyclohexyl-4-(((S)-pyrrolidin-3-yl)oxy)phenyl)(4-(3-fluoro-5-(2,7-diazaspiro[4.4]nonan-2-yl)phenoxy)piperidin-1-yl)methanone ditrifluoroacetic acid] | ≤ 40 | ≤ 40
5 | CC(C)(C)C1CCC(c2cc(C(=O)N3CCC(Oc4cc(N5CCNCC5)ccc4F)CC3)ccc2O[C@H]2CCNC2)CC1 (stereo in doubt) [Compound 34, cis- and trans-(S)-(3-(4-(tert-butyl)cyclohexyl)-4-(pyrrolidin-3-yloxy)phenyl)(4-(2-fluoro-5-(piperazin-1-yl)phenoxy)piperidin-1-yl)methanone dihydrochloride] | ≤ 10 | ≤ 10
6 | CC(C)(C)[C@H]1CC[C@H](c2cc(C(=O)N3CCC(Oc4cc(N5CCNCC5)ccc4C#N)CC3)ccc2O[C@H]2CCNC2)CC1 [Compound 45] | ≤ 4 | ≤ 4
7 | CC(C)(C)C1CCC(c2cc(C(=O)N3CCC(Oc4cc(N5CCNCC5)cc(F)c4F)CC3)ccc2O[C@H]2CCNC2)CC1 (stereo in doubt) [Compound 35, cis- and trans-(S)-(3-(4-(tert-butyl)cyclohexyl)-4-(pyrrolidin-3-yloxy)phenyl)(4-(2,3-difluoro-5-(piperazin-1-yl)phenoxy)piperidin-1-yl)methanone dihydrochloride] | ≤ 5 | ≤ 5
8 | O=C(c1ccc(O[C@H]2CCNC2)c(N2CCC(C(F)(F)F)CC2)c1)N1CCC(Oc2cc(F)cc(N3CCNCC3)c2)CC1 [Compound 26, (S)-(4-(3-fluoro-5-(piperazin-1-yl)phenoxy)piperidin-1-yl)(4-(pyrrolidin-3-yloxy)-3-(4-(trifluoromethyl)piperidin-1-yl)phenyl)methanone dihydrochloride] | ≤ 100 | ≤ 100
9 | CC(C)(C)c1ccc(-c2cc(C(=O)N3CCC(Oc4cc(F)cc(N5CCNCC5)c4)CC3)ccc2O[C@H]2CCNC2)cc1 [Compound 10, (S)-(4′-(tert-butyl)-6-(pyrrolidin-3-yloxy)-[1,1′-biphenyl]-3-yl)(4-(3-fluoro-5-(piperazin-1-yl)phenoxy)piperidin-1-yl)methanone dihydrochloride] | ≤ 20 | ≤ 20
10 | O=C(c1ccc(O[C@H]2CCNC2)c(-c2ccc3[nH]cnc3c2)c1)N1CCC(Oc2cc(F)cc(N3CCNCC3)c2)CC1 [Compound 16, (S)-(3-(1H-benzo[d]imidazol-5-yl)-4-(pyrrolidin-3-yloxy)phenyl)(4-(3-fluoro-5-(piperazin-1-yl)phenoxy)piperidin-1-yl)methanone dihydrochloride] | ≤ 50 | ≤ 50
11 | CC(C)(C)C1CCC(c2cc(C(=O)N3CCC(Oc4cc(N5CCNCC5)ccc4Cl)CC3)ccc2O[C@H]2CCNC2)CC1 (stereo in doubt) [Compound 36, cis- and trans-(S)-(3-(4-(tert-butyl)cyclohexyl)-4-(pyrrolidin-3-yloxy)phenyl)(4-(2-chloro-5-(piperazin-1-yl)phenoxy)piperidin-1-yl)methanone dihydrochloride] | ≤ 5 | ≤ 5
12 | CC(C)(C)C1CCC(c2cc(C(=O)N3CCC(Oc4cc(C#N)cc(N5CCNCC5)c4)CC3)ccc2O[C@H]2CCNC2)CC1 (stereo in doubt) [Compound 32, cis- and trans-(S)-3-((1-(3-(4-(tert-butyl)cyclohexyl)-4-(pyrrolidin-3-yloxy)benzoyl)piperidin-4-yl)oxy)-5-(piperazin-1-yl)benzonitrile dihydrochloride] | ≤ 10 | ≤ 10
13 | CC(C)(C)C1CCC(c2cc(C(=O)N3CCC(Oc4ccc(F)c(N5CCNCC5)c4)CC3)ccc2O[C@H]2CCNC2)CC1 (stereo in doubt) [Compound 33, cis- and trans-(S)-(3-(4-(tert-butyl)cyclohexyl)-4-(pyrrolidin-3-yloxy)phenyl)(4-(4-fluoro-3-(piperazin-1-yl)phenoxy)piperidin-1-yl)methanone dihydrochloride] | ≤ 10 | ≤ 10
14 | CC(C)(C)C1CCC(c2cc(C(=O)N3CCC(Oc4cc(N5CCNCC5)ccc4C(=O)O)CC3)ccc2O[C@H]2CCNC2)CC1 (stereo in doubt) [Compound 40, cis- and trans-(S)-2-((1-(3-(4-(tert-butyl)cyclohexyl)-4-(pyrrolidin-3-yloxy)benzoyl)piperidin-4-yl)oxy)-4-(piperazin-1-yl)benzoic acid dihydrochloride] | ~84 | ~100
15 | CN(C)C(=O)c1ccc(N2CCNCC2)cc1OC1CCN(C(=O)c2ccc(O[C@H]3CCNC3)c(C3CCC(C(C)(C)C)CC3)c2)CC1 (stereo in doubt) [Compound 43, cis- and trans-(S)-2-((1-(3-(4-(tert-butyl)cyclohexyl)-4-(pyrrolidin-3-yloxy)benzoyl)piperidin-4-yl)oxy)-N,N-dimethyl-4-(piperazin-1-yl)benzamide dihydrochloride] | ~81 | ~100
16 | CC(C)(O)C1CCN(c2cc(C(=O)N3CCC(Oc4cc(F)cc(N5CCNCC5)c4)CC3)ccc2O[C@H]2CCNC2)CC1 [Compound 29, (4-(3-fluoro-5-(piperazin-1-yl)phenoxy)piperidin-1-yl)(3-(4-(2-hydroxypropan-2-yl)piperidin-1-yl)-4-(pyrrolidin-3-yloxy)phenyl)methanone] | ≤ 50 | ≤ 50
17 | O=C(c1ccc(O[C@H]2CCNC2)c(C2CCCCC2)c1)N1CCC(Oc2cc(F)cc(N3CCNCC3)c2)CC1 [Compound 1, (S)-(3-cyclohexyl-4-(pyrrolidin-3-yloxy)phenyl)(4-(3-fluoro-5-(piperazin-1-yl)phenoxy)piperidin-1-yl)methanone dihydrochloride] | ≤ 50 | ≤ 60
18 | CC(C)(C)C1CCC(c2cc(C(=O)N3CCC(Oc4cc(Cl)cc(N5CCNCC5)c4)CC3)ccc2O[C@H]2CCNC2)CC1 (stereo in doubt) [Compound 30, cis- and trans-(S)-(3-(4-(tert-butyl)cyclohexyl)-4-(pyrrolidin-3-yloxy)phenyl)(4-(3-chloro-5-(piperazin-1-yl)phenoxy)piperidin-1-yl)methanone dihydrochloride] | ≤ 5 | ≤ 5
19 | CC(C)(C)C1CCC(c2cc(C(=O)N3CCC(Oc4cc(N5CCNCC5)ccc4C#N)CC3)ccc2O[C@H]2CCNC2)CC1 (stereo in doubt) [Compound 37, cis- and trans-(S)-2-((1-(3-(4-(tert-butyl)cyclohexyl)-4-(pyrrolidin-3-yloxy)benzoyl)piperidin-4-yl)oxy)-4-(piperazin-1-yl)benzonitrile dihydrochloride] | ≤ 2 | ≤ 2
20 | CC(C)C(=O)N1CCC(c2cc(C(=O)N3CCC(Oc4cc(F)cc(N5CCNCC5)c4)CC3)ccc2O[C@H]2CCNC2)CC1 [Compound 22, (S)-1-(4-(5-(4-(3-fluoro-5-(piperazin-1-yl)phenoxy)piperidine-1-carbonyl)-2-(pyrrolidin-3-yloxy)phenyl)piperidin-1-yl)-2-methylpropan-1-one dihydrochloride] | ≤ 50 | ≤ 50
